Columns and labels:
Format in all cases: cell-based
[1] = system: IL-2 secretion from T cells in human whole blood; conditions: read-out: WB (IL-2) IC50 (nM, Avg)
[2] = biological target: hKv1.3 (Homo sapiens, UniProt P22001); test: cell-based; conditions: Kv1.3 (IWQ) IC50 (nM, Avg)
[3] = system: IFN-g secretion from T cells in human whole blood; conditions: read-out: WB (IFNg) IC50 (nM, Avg)

Chain of hKv1.3 (P22001 whole entry): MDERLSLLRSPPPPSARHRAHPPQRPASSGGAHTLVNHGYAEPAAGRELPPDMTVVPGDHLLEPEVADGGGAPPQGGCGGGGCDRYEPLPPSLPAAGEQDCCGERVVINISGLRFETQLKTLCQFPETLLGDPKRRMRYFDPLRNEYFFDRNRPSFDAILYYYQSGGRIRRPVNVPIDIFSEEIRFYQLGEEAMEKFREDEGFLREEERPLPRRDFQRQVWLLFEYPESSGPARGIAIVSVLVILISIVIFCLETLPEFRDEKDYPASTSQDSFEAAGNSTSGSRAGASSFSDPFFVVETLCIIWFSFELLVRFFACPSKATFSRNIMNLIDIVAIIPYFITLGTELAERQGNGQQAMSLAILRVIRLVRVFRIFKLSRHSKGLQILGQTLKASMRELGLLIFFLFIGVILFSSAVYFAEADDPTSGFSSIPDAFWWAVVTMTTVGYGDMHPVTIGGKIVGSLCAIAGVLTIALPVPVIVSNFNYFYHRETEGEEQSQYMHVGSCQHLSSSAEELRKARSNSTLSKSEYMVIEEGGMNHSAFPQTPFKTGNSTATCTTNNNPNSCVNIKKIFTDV

Row | Compound | IC50 [1] | IC50 [2] | IC50 [3]
1 | CC[C@H](C)[C@@H]1NC(=O)[C@@H](NC(=O)[C@H](CO)NC(=O)[C@@H](N)CCCNC(=N)N)CSSC[C@@H](C(=O)O)NC(=O)[C@H]([C@@H](C)O)NC(=O)CNC(=O)[C@@H]2CSSC[C@@H]3NC(=O)[C@H](CCC(N)=O)NC(=O)[C@H](Cc4ccccc4)NC(=O)[C@H](C)NC(=O)[C@H]([C@@H](C)O)NC(=O)[C@H](CSSC[C@H](NC(=O)[C@H](Cc4ccccc4)NC(=O)[C@H](CO)NC(=O)[C@H](CC(C)C)NC(=O)[C@H](CCCNC(=N)N)NC(=O)[C@H](Cc4ccc(O)cc4)NC(=O)[C@H](CCCCN)NC(=O)[C@H](CCSC)NC(=O)[C@H](CO)NC(=O)[C@H](Cc4c[nH]cn4)NC(=O)[C@H](CCCCN)NC3=O)C(=O)N[C@@H](CCCNC(=N)N)C(=O)N[C@@H](CCCCN)C(=O)N[C@@H]([C@@H](C)O)C(=O)N2)NC(=O)[C@H](CCCNC(=N)N)NC(=O)[C@H](CO)NC(=O)[C@H](CCCNC(=N)N)NC(=O)[C@@H]2CCCN2C(=O)[C@H]([C@@H](C)CC)NC(=O)[C@H]([C@@H](C)O)NC(=O)[C@H](CC(=O)O)NC1=O [[Arg9]ShK] | 0.108 nM | 0.096 nM | 0.116 nM
2 | CC[C@H](C)[C@@H]1NC(=O)[C@@H](NC(=O)[C@H](CO)NC(=O)[C@@H](N)CCCNC(=N)N)CSSC[C@@H](C(=O)O)NC(=O)[C@H]([C@@H](C)O)NC(=O)CNC(=O)[C@@H]2CSSC[C@@H]3NC(=O)[C@H](CCC(N)=O)NC(=O)[C@H](Cc4ccccc4)NC(=O)[C@H](C)NC(=O)[C@H]([C@@H](C)O)NC(=O)[C@H](CSSC[C@H](NC(=O)[C@H](Cc4ccccc4)NC(=O)[C@H](CO)NC(=O)[C@H](CC(C)C)NC(=O)[C@H](CCCNC(=N)N)NC(=O)[C@H](Cc4ccc(O)cc4)NC(=O)[C@H](CCCCN)NC(=O)[C@H](CCSC)NC(=O)[C@H](CO)NC(=O)[C@H](Cc4c[nH]cn4)NC(=O)[C@H](CCCCN)NC3=O)C(=O)N[C@@H](CCCNC(=N)N)C(=O)N[C@@H](CCCCN)C(=O)N[C@@H]([C@@H](C)O)C(=O)N2)NC(=O)[C@H](CCCNC(=N)N)NC(=O)[C@H](CCCNC(=N)N)NC(=O)[C@H](CCCCN)NC(=O)[C@@H]2CCCN2C(=O)[C@H]([C@@H](C)CC)NC(=O)[C@H]([C@@H](C)O)NC(=O)[C@H](CC(=O)O)NC1=O [[Arg10]ShK] | 0.029 nM | 0.07 nM | 0.068 nM
3 | CC[C@H](C)[C@@H]1NC(=O)[C@@H](NC(=O)[C@H](CO)NC(=O)[C@@H](N)CCCNC(=N)N)CSSC[C@@H](C(=O)O)NC(=O)[C@H]([C@@H](C)O)NC(=O)CNC(=O)[C@@H]2CSSC[C@@H]3NC(=O)[C@H](CCC(N)=O)NC(=O)[C@H](Cc4ccccc4)NC(=O)[C@H](C)NC(=O)[C@H](CCCNC(=N)N)NC(=O)[C@H](CSSC[C@H](NC(=O)[C@H](Cc4ccccc4)NC(=O)[C@H](CO)NC(=O)[C@H](CC(C)C)NC(=O)[C@H](CCCNC(=N)N)NC(=O)[C@H](Cc4ccc(O)cc4)NC(=O)[C@H](CCCCN)NC(=O)[C@H](CCSC)NC(=O)[C@H](CO)NC(=O)[C@H](Cc4c[nH]cn4)NC(=O)[C@H](CCCCN)NC3=O)C(=O)N[C@@H](CCCNC(=N)N)C(=O)N[C@@H](CCCCN)C(=O)N[C@@H]([C@@H](C)O)C(=O)N2)NC(=O)[C@H](CCCNC(=N)N)NC(=O)[C@H](CO)NC(=O)[C@H](CCCCN)NC(=O)[C@@H]2CCCN2C(=O)[C@H]([C@@H](C)CC)NC(=O)[C@H]([C@@H](C)O)NC(=O)[C@H](CC(=O)O)NC1=O [[Arg13]ShK] | 0.503 nM | 0.149 nM | 0.629 nM
4 | CC[C@H](C)[C@@H]1NC(=O)[C@@H](NC(=O)[C@H](CO)NC(=O)[C@@H](N)CCCNC(=N)N)CSSC[C@@H](C(=O)O)NC(=O)[C@H]([C@@H](C)O)NC(=O)CNC(=O)[C@@H]2CSSC[C@@H]3NC(=O)[C@H](CCC(N)=O)NC(=O)[C@H](Cc4ccccc4)NC(=O)[C@H](CCCNC(=N)N)NC(=O)[C@H]([C@@H](C)O)NC(=O)[C@H](CSSC[C@H](NC(=O)[C@H](Cc4ccccc4)NC(=O)[C@H](CO)NC(=O)[C@H](CC(C)C)NC(=O)[C@H](CCCNC(=N)N)NC(=O)[C@H](Cc4ccc(O)cc4)NC(=O)[C@H](CCCCN)NC(=O)[C@H](CCSC)NC(=O)[C@H](CO)NC(=O)[C@H](Cc4c[nH]cn4)NC(=O)[C@H](CCCCN)NC3=O)C(=O)N[C@@H](CCCNC(=N)N)C(=O)N[C@@H](CCCCN)C(=O)N[C@@H]([C@@H](C)O)C(=O)N2)NC(=O)[C@H](CCCNC(=N)N)NC(=O)[C@H](CO)NC(=O)[C@H](CCCCN)NC(=O)[C@@H]2CCCN2C(=O)[C@H]([C@@H](C)CC)NC(=O)[C@H]([C@@H](C)O)NC(=O)[C@H](CC(=O)O)NC1=O [[Arg14]ShK] | 0.266 nM | 0.077 nM | 0.307 nM
5 | CC[C@H](C)[C@@H]1NC(=O)[C@@H](NC(=O)[C@H](CO)NC(=O)[C@@H](N)CCCNC(=N)N)CSSC[C@@H](C(=O)O)NC(=O)[C@H]([C@@H](C)O)NC(=O)CNC(=O)[C@@H]2CSSC[C@@H]3NC(=O)[C@H](CCC(N)=O)NC(=O)[C@H](CCCNC(=N)N)NC(=O)[C@H](C)NC(=O)[C@H]([C@@H](C)O)NC(=O)[C@H](CSSC[C@H](NC(=O)[C@H](Cc4ccccc4)NC(=O)[C@H](CO)NC(=O)[C@H](CC(C)C)NC(=O)[C@H](CCCNC(=N)N)NC(=O)[C@H](Cc4ccc(O)cc4)NC(=O)[C@H](CCCCN)NC(=O)[C@H](CCSC)NC(=O)[C@H](CO)NC(=O)[C@H](Cc4c[nH]cn4)NC(=O)[C@H](CCCCN)NC3=O)C(=O)N[C@@H](CCCNC(=N)N)C(=O)N[C@@H](CCCCN)C(=O)N[C@@H]([C@@H](C)O)C(=O)N2)NC(=O)[C@H](CCCNC(=N)N)NC(=O)[C@H](CO)NC(=O)[C@H](CCCCN)NC(=O)[C@@H]2CCCN2C(=O)[C@H]([C@@H](C)CC)NC(=O)[C@H]([C@@H](C)O)NC(=O)[C@H](CC(=O)O)NC1=O [[Arg15]ShK] | 0.162 nM | 0.088 nM | 0.204 nM
6 | CC[C@H](C)[C@@H]1NC(=O)[C@@H](NC(=O)[C@H](CO)NC(=O)[C@@H](N)CCCNC(=N)N)CSSC[C@@H](C(=O)O)NC(=O)[C@H]([C@@H](C)O)NC(=O)CNC(=O)[C@@H]2CSSC[C@@H]3NC(=O)[C@H](CCCNC(=N)N)NC(=O)[C@H](Cc4ccccc4)NC(=O)[C@H](C)NC(=O)[C@H]([C@@H](C)O)NC(=O)[C@H](CSSC[C@H](NC(=O)[C@H](Cc4ccccc4)NC(=O)[C@H](CO)NC(=O)[C@H](CC(C)C)NC(=O)[C@H](CCCNC(=N)N)NC(=O)[C@H](Cc4ccc(O)cc4)NC(=O)[C@H](CCCCN)NC(=O)[C@H](CCSC)NC(=O)[C@H](CO)NC(=O)[C@H](Cc4c[nH]cn4)NC(=O)[C@H](CCCCN)NC3=O)C(=O)N[C@@H](CCCNC(=N)N)C(=O)N[C@@H](CCCCN)C(=O)N[C@@H]([C@@H](C)O)C(=O)N2)NC(=O)[C@H](CCCNC(=N)N)NC(=O)[C@H](CO)NC(=O)[C@H](CCCCN)NC(=O)[C@@H]2CCCN2C(=O)[C@H]([C@@H](C)CC)NC(=O)[C@H]([C@@H](C)O)NC(=O)[C@H](CC(=O)O)NC1=O [[Arg16]ShK] | 0.652 nM | 0.164 nM | 0.818 nM

— patent US20120121591A1 (priority 2009, published 2012)
